Experimental data from patent publication US20260207666A1, “CD38 AS INTEGRATION SITE FOR ENHANCED FUNCTION OF GENE-MODIFIED IMMUNE CELLS” (RESEARCH INSTITUTE AT NATIONWIDE CHILDREN'S HOSPITAL, priority 2022, published 2026).
Entries after “also recorded” stand apart in the source; their conditions may differ.

Assays:
[1] = system: human primary T cells; test: CD38 and CD38-CAR expression by flow cytometry in T cells; format: cell-based; settings: T cells, 75,000 vg/cell AAV6 (FIG. 22B)
Method: Human primary T cells were isolated from donor buffy coats using RosetteSep™ Human T Cell Enrichment Cocktail (Stem Cell Technologies, Vancouver, BC, Canada) as described for NK cells. Isolated T cells were stimulated on day 0 with Human T-Activator CD3/CD28 (Thermo Fisher Scientific). Stimulated T cells were cultured in RPMI 1640 media plus Glutamax, 10% FBS at a concentration of 1.0e6 cells/mL and supplemented with 50 IU/mL human recombinant IL-7 and IL-15 (Biolegend, San Diego, CA) every 2-3 days.
Two days after cytokine activation the T cells were electroporated and transduced as described below. After transduction the cells were expanded in RPMI 1640 media plus Glutamax, 10% FBS at 1.0e6 cells/mL with IL-7 and IL-15 supplemented at 50 IU/mL every 2-3 days for up to 10 days.
CD38^KO/CD38-CAR T cells or NK cells were generated by electroporation of HiFi Cas9 Nuclease V3 (Integrated DNA Technologies, Coralville, IA) and gRNA targeting exon 1 of the CD38 gene (5-[…]) (SEQ ID NO: 1). Knock-out cells were then returned to culture media and transduced within 30 minutes with 75,000 vg/cell of Adeno-Associated Virus Type 6 (AAV6, Andelyn Biosciences) vector containing the CAR expression cassette with CD38 homology arms. […]

[2] = system: human primary NK cells; test: CD38 and CD38-CAR expression by flow cytometry in NK cells; format: cell-based; settings: CAR inserted at CD38 locus, 75,000 vg/cell AAV6, seven days post-transduction (FIG. 18C)
Method: CD38^KO/CD38-CAR T cells or NK cells were generated by electroporation of HiFi Cas9 Nuclease V3 (Integrated DNA Technologies, Coralville, IA) and gRNA targeting exon 1 of the CD38 gene (5-[…]) (SEQ ID NO: 1). Knock-out cells were then returned to culture media and transduced within 30 minutes with 75,000 vg/cell of Adeno-Associated Virus Type 6 (AAV6, Andelyn Biosciences) vector containing the CAR expression cassette with CD38 homology arms.
(§1) Cells were stained in PBS buffer containing 2% FBS using anti-CD38/PE (Miltenyi Biotec, clone REA572), CD38 Fc Chimera Protein (R&D Systems, rhCD38) followed by secondary staining with Alexa Fluor 647 AffiniPure Goat Anti-Human IgG (Jackson ImmunoResearch), and Tonbo Ghost Dye 450 (Tonbo Biosciences, San Diego, CA, USA). See representative gating strategy (FIG. 25).

[3] = system: H929; test: 4-hour calcein AM cytotoxicity assay; format: cell-based, human; settings: H929 (MM), 4-hour assay
Method: (§2) CSTX002 feeder cells, derived from K562 and transduced to express membrane-bound IL-21 and 4-1BBL (referred to hereafter as FC21) were cultured in RMPI 1640 media containing 10% fetal bovine serum (FBS) at 37° C., 5% CO2. FC21 were treated with 100 Gy x-ray irradiation (Faxitron, Tucson AZ) prior to coculture with NK cells. Human AML cell line MV4-11, MM cell lines MM1S and H929, and BL cell lines Daudi and Raji were purchased from American type culture collection (ATCC). Primary human AML cells (AML10) were obtained from a pediatric patient with relapsed M5 AML and passaged in NOD-SCID mice. Primary human AML, Pre-T ALL, T-PLL, MM, and HSTCL were obtained from the Ohio State University Comprehensive Cancer Center Leukemia Tissue Bank. Tumor cell lines were cultured in RPMI 1640 media plus Glutamax, 10% FBS and routinely tested for mycoplasma contamination. Anonymized human buffy coats were obtained from the American Red Cross of Ohio (Columbus, OH, USA) as healthy donor lymphocyte source material, designated not human subjects research by the institutional review board.
(§3) 4-hour cytotoxicity assays were performed using calcein AM (Fisher Scientific, Hampton, NH). Briefly, target tumor cells were stained with 2 μg/mL calcein AM and co-cultured with effector cells at the indicated Effector:Target ratios. After 4 hours, culture supernatant was assessed by fluorimetry and percent specific lysis calculated using maximum and minimum controls. Cytotoxicity is plotted as percent specific lysis.

[4] = system: Raji; test: 4-hour calcein AM cytotoxicity assay; format: cell-based, human; settings: Raji (BL), 4-hour assay
Method: as §2, §3

[5] = system: MV4-11; test: 4-hour calcein AM cytotoxicity assay; format: cell-based, human; settings: MV4-11 (AML), 4-hour assay
Method: as §2, §3

[6] = system: primary AML cells; test: Mass cytometry lysis assay; format: cell-based, human; settings: with ATRA, prior to co-culture with NK cells
Method: A primary AML patient cell sample (OSU leukemia tissue bank) was cultured in a 6-well plate (pre-coated with rat tail collagen [Corning]) in serum free media (SFEM) supplemented with a cytokine cocktail (IL-6, IL-3, FLT3, GMCSF, GCSF, and TPO at 6.66 ng/mL, EPO at 3.33 ng/mL, SCF at 20 ng/mL; Stem Cell Technologies). The primary AML samples were cultured for 24 hours with or without 10 nM ATRA. After 24 hours, wild-type or CD38^KO/CD38 CAR-NK cells were added at a ratio of 1:1 and co-cultured for 24 hours. Control wells were cultured in parallel. Cell were stained and events were acquired on the Helios CyTOF system (Fluidigm, Toronto, Canada). Cells were identified using markers and analyzed using SPADE.

[7] = system: CD38^KO NK cells; test: Effect of ATRA on NK cell function or viability; format: cell-based, human
[8] = system: MM cell lines; test: CD38 surface expression after ATRA treatment (flow cytometry); format: cell-based, human; settings: intermediate to high CD38-expressing MM cell lines, 10 nM ATRA for 48 hours
Source text: as §1
(§4) To further augment the antitumor activity of the CD38-CAR NK cells, we explored combination therapy with ATRA. ATRA is a differentiation agent that upregulates CD38 expression in many cell types. Across cell lines of AML, MM, and BL, we observed variable responses in CD38 expression after treatment with 10 nM ATRA for 48 hours (FIG. 20A). […] Thus, ATRA appears to have a cell line dependent effect on the increase in CD38 surface density and sensitivity to CAR NK cell killing (FIG. 20A, 20C).

[9] = system: BL; test: as above; format: cell-based, human; settings: high CD38-expressing BL, 10 nM ATRA for 48 hours
Source text: as §1, §4

[10] = system: AML cell lines; test: as above; format: cell-based, human; settings: AML cell lines with lowest baseline CD38, 10 nM ATRA for 48 hours
Source text: as §1, §4

Compound	median AAV6 transduction efficiency [1] [%]	median AAV6 transduction efficiency [2] [%]	cytotoxicity compared to wildtype cells [3]	cytotoxicity compared to wildtype cells [4]	cytotoxicity compared to wildtype cells [5]	live cell population of primary AML cells [6] [%]	adverse effect on function or viability of CD38^KO NK cells [7]	CD38 expression after ATRA treatment [8]	CD38 expression after ATRA treatment [9]	CD38 expression after ATRA treatment [10]
V3: Isatuximab-based anti-CD38 second-generation CAR construct with CD3ζ, 41BB and CD8α TM/hinge, SEQ ID NO: 27/28	44.4	60.7	significant increase in cytotoxicity	significant increase in cytotoxicity	significant increase in cytotoxicity					
V4: Isatuximab-based anti-CD38 CAR construct with reversed heavy/light chain order, SEQ ID NO: 29/30	35.9	61.9	significant increase in cytotoxicity	significant increase in cytotoxicity	significant increase in cytotoxicity					
CC1=C(/C=C/C(C)=C/C=C/C(C)=C/C(=O)O)C(C)(C)CCC1 [ATRA, all-trans retinoic acid]						77.5	did not have any adverse effect	minor increase	no observable increase	greatest proportional increase; also recorded: greatest increases
